From patent publication US12723063B2, “GIPR-agonist compounds” (Eli Lilly and Company, priority 2019, dated 2026) come the findings set out here.

What all share (experiment): cAMP functional assay (HTRF) in HEK293 cells in presence of 0.1% casein
What all share (type): cell-based

The target in assay [1] is T1, human glucose-dependent insulinotropic peptide receptor (GIPR) (Homo sapiens, UniProt P48546).
T1 construct: expressed in transfected cells; host or cells: HEK293
T1 sequence (P48546 22-466): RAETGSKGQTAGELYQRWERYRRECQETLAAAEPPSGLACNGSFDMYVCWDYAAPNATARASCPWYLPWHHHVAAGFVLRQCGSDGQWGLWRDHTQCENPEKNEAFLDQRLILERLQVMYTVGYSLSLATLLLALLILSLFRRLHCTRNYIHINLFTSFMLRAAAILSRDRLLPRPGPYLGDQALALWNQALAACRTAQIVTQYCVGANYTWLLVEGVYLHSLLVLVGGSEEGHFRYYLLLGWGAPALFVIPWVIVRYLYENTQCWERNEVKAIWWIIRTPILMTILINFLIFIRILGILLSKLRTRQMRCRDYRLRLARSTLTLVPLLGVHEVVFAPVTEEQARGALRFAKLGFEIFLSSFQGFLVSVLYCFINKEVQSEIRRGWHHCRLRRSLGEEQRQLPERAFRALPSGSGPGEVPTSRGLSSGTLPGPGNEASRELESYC
Conditions: HEK293 cells expressing human GIPR, geometric mean, read-out: hGIPR cAMP Rel EC50 nM (SEM, n).

In assay [2] the target is T2, human GLP-1 receptor (GLP-1R) (Homo sapiens, UniProt P43220).
T2 construct: expressed in transfected cells; host or cells: HEK293
Conditions: HEK293 cells expressing human GLP-1R, geometric mean, read-out: hGLP1R cAMP Rel EC50 nM (SEM, n).

Assay [3] deals with T3, human glucagon receptor (GcgR) (Homo sapiens, UniProt P47871).
T3 construct: expressed in transfected cells; host or cells: HEK293
Conditions: HEK293 cells expressing human GcgR, geometric mean, read-out: hGcgR cAMP Rel EC50 nM (SEM, n).

As usually defined, the EC50 is the concentration giving half of the maximal effect.

*1 amine or outer side, *2 acyl side, *3 side chain or, on linkers, in order; H or OH if unused. Where a SMILES comes first, the peptide text is derived from it. Side-chain parts run from the residue outwards. [ ]: non-standard residue; d: D form. The star is where a group is joined. C20 diacid = O=C(O)CCCCCCCCCCCCCCCCCCC(=O)*; C18 diacid = O=C(O)CCCCCCCCCCCCCCCCC(=O)*; αMePhe(2-F) = C[C@](N)(Cc1ccccc1F)C(=O)O; γGlu = O=C(O)[C@H](CCC(=O)[*:2])N[*:1]; αMeY = C[C@](N)(Cc1ccc(O)cc1)C(=O)O; 4Pal = N[C@@H](Cc1ccncc1)C(=O)O; αMeL = CC(C)C[C@](C)(N)C(=O)O; Iva = CC[C@](C)(N)C(=O)O; AEEA = NCCOCCOCC(=O)O; Aib = CC(C)(N)C(=O)O

T3 sequence (P47871 26-477): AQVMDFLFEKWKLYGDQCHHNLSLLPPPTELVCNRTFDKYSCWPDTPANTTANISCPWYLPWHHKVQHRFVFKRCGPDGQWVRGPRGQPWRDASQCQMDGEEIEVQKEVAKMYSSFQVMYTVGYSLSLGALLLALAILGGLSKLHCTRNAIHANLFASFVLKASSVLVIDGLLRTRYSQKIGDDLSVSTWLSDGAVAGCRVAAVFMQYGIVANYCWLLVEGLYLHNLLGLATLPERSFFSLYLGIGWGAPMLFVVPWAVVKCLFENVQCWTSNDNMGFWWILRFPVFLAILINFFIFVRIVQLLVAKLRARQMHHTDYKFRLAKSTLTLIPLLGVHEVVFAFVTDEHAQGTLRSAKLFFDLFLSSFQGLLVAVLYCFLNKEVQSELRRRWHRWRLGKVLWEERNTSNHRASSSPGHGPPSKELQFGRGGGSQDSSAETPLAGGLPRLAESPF
T2 sequence (P43220 24-463): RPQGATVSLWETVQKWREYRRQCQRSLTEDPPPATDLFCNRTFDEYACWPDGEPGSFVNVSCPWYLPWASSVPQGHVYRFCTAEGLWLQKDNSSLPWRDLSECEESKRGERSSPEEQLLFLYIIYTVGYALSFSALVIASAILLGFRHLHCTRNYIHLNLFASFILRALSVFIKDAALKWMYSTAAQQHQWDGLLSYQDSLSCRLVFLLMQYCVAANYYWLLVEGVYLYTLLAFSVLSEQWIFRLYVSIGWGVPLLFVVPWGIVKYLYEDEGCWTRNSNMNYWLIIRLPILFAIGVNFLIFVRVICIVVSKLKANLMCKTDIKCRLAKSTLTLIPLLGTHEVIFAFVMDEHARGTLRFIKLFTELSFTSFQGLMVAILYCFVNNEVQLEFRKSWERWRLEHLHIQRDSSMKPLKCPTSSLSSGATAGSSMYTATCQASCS

As for `CC[C@H](C)[C@H](NC(=O)[C@H](CCCCN)NC(=O)[C@H](CC(=O)O)NC(=O)[C@H](CC(C)C)NC(=O)[C@](C)(CC(C)C)NC(=O)[C@@H](NC(=O)[C@H](CO)NC(=O)[C@H](Cc1ccc(O)cc1)NC(=O)[C@H](CC(=O)O)NC(=O)[C@H](CO)NC(=O)[C@@H](NC(=O)[C@H](Cc1ccccc1)NC(=O)[C@@H](NC(=O)CNC(=O)[C@H](CCC(=O)O)NC(=O)C(C)(C)NC(=O)[C@@H](N)Cc1ccc(O)cc1)[C@@H](C)O)[C@@H](C)CC)[C@@H](C)CC)C(=O)N[C@@H](Cc1c[nH]cn1)C(=O)N[C@@H](CCC(N)=O)C(=O)NC(C)(C)C(=O)N[C@@H](CC(=O)O)C(=O)N[C@@H](Cc1ccccc1)C(=O)N[C@H](C(=O)N[C@@H](CCC(=O)O)C(=O)N[C@@H](Cc1ccncc1)C(=O)N[C@@H](CCCCNC(=O)COCCOCCNC(=O)COCCOCCNC(=O)CC[C@H](NC(=O)CCCCCCCCCCCCCCCCC(=O)O)C(=O)O)C(=O)N[C@@H](CC(C)C)C(=O)N[C@@H](CCC(=O)O)C(=O)NCC(=O)NCC(=O)N1CCC[C@H]1C(=O)N[C@@H](CO)C(=O)N[C@@H](CO)C(=O)NCC(=O)N[C@@H](C)C(=O)N1CCC[C@H]1C(=O)N1CCC[C@H]1C(=O)N1CCC[C@H]1C(=O)N[C@@H](CO)C(N)=O)C(C)C` [Example 110] (H-Y[Aib]EGTFISDYSI[αMeL]LDKIHQ[Aib]DFVE[4Pal]K([AEEA-AEEA-γGlu-C18 diacid])LEGGPSSGAPPPS-NH2), the EC50 is 0.0071 nM in assay [1], > 5000 nM in assay [2] and > 5000 nM in assay [3].

For the molecule `CC[C@H](C)[C@H](NC(=O)[C@H](CO)NC(=O)[C@H](Cc1ccc(O)cc1)NC(=O)[C@H](CC(=O)O)NC(=O)[C@H](CO)NC(=O)[C@@H](NC(=O)[C@H](Cc1ccccc1)NC(=O)[C@@H](NC(=O)CNC(=O)[C@H](CCC(=O)O)NC(=O)[C@@H](C)NC(=O)[C@@H](N)Cc1ccc(O)cc1)[C@@H](C)O)[C@@H](C)CC)C(=O)N[C@@H](CC(C)C)C(=O)N[C@@H](CC(C)C)C(=O)N[C@@H](CC(=O)O)C(=O)N[C@@H](CCCCN)C(=O)N[C@@H](CCCCNC(=O)COCCOCCNC(=O)COCCOCCNC(=O)CC[C@H](NC(=O)CCCCCCCCCCCCCCCCCCC(=O)O)C(=O)O)C(=O)N[C@@H](C)C(=O)N[C@@H](CCC(N)=O)C(=O)N[C@@H](CCC(N)=O)C(=O)N[C@@H](CC(=O)O)C(=O)N[C@@H](Cc1ccccc1)C(=O)N[C@H](C(=O)N[C@@H](CC(N)=O)C(=O)N[C@@H](Cc1c[nH]c2ccccc12)C(=O)N[C@@H](CC(C)C)C(=O)N[C@@H](CC(C)C)C(=O)N[C@@H](C)C(=O)N[C@@H](CCC(N)=O)C(=O)NCC(=O)N1CCC[C@H]1C(=O)N[C@@H](CO)C(=O)N[C@@H](CO)C(=O)NCC(=O)N[C@@H](C)C(=O)N1CCC[C@H]1C(=O)N1CCC[C@H]1C(=O)N1CCC[C@H]1C(=O)N[C@@H](CO)C(N)=O)C(C)C` [Example 11] (H-Y[dA]EGTFISDYSILLDKK([AEEA-AEEA-γGlu-C20 diacid])AQQDFVNWLLAQGPSSGAPPPS-NH2), the EC50 in assay [1] was 0.0738 nM; in assay [2] it was > 100 nM; in assay [3] it was 445 nM.

As for `CC[C@H](C)[C@H](NC(=O)[C@H](CO)NC(=O)[C@H](Cc1ccc(O)cc1)NC(=O)[C@H](CC(=O)O)NC(=O)[C@H](CO)NC(=O)[C@@H](NC(=O)[C@H](Cc1ccccc1)NC(=O)[C@@H](NC(=O)CNC(=O)[C@H](CCC(=O)O)NC(=O)[C@@H](C)NC(=O)[C@@H](N)Cc1ccc(O)cc1)[C@@H](C)O)[C@@H](C)CC)C(=O)N[C@@H](CC(C)C)C(=O)N[C@@H](CC(C)C)C(=O)N[C@@H](CC(=O)O)C(=O)N[C@@H](CCCCN)C(=O)N[C@@H](CCCCNC(=O)COCCOCCNC(=O)COCCOCCNC(=O)CC[C@H](NC(=O)CCCCCCCCCCCCCCCCCCC(=O)O)C(=O)O)C(=O)N[C@@H](Cc1c[nH]cn1)C(=O)N[C@@H](CCC(N)=O)C(=O)N[C@@H](CCC(N)=O)C(=O)N[C@@H](CC(=O)O)C(=O)N[C@@H](Cc1ccccc1)C(=O)N[C@H](C(=O)N[C@@H](CC(N)=O)C(=O)N[C@@H](Cc1c[nH]c2ccccc12)C(=O)N[C@@H](CC(C)C)C(=O)N[C@@H](CC(C)C)C(=O)N[C@@H](C)C(=O)NCC(=O)NCC(=O)N1CCC[C@H]1C(=O)N[C@@H](CO)C(=O)N[C@@H](CO)C(=O)NCC(=O)N[C@@H](C)C(=O)N1CCC[C@H]1C(=O)N1CCC[C@H]1C(=O)N1CCC[C@H]1C(=O)N[C@@H](CO)C(N)=O)C(C)C` [Example 10] (H-Y[dA]EGTFISDYSILLDKK([AEEA-AEEA-γGlu-C20 diacid])HQQDFVNWLLAGGPSSGAPPPS-NH2), the EC50 was 0.611 nM in assay [1], > 100 nM in assay [2] and > 5000 nM in assay [3].

As to `CC[C@H](C)[C@H](NC(=O)[C@H](Cc1ccccc1)NC(=O)[C@@H](NC(=O)CNC(=O)[C@H](CCC(=O)O)NC(=O)C(C)(C)NC(=O)[C@@H](N)Cc1ccc(O)cc1)[C@@H](C)O)C(=O)N[C@@H](CO)C(=O)N[C@@H](CC(=O)O)C(=O)N[C@@H](Cc1ccc(O)cc1)C(=O)N[C@@H](CO)C(=O)N[C@H](C(=O)N[C@@](C)(CC(C)C)C(=O)N[C@@H](CC(C)C)C(=O)N[C@@H](CC(=O)O)C(=O)N[C@@H](CCCCN)C(=O)N[C@@H](CCCCNC(=O)COCCOCCNC(=O)COCCOCCNC(=O)CC[C@H](NC(=O)CCCCCCCCCCCCCCCCCCC(=O)O)C(=O)O)C(=O)N[C@@H](Cc1c[nH]cn1)C(=O)N[C@@H](CCC(N)=O)C(=O)NC(C)(C)C(=O)N[C@@H](CC(=O)O)C(=O)N[C@@H](Cc1ccccc1)C(=O)N[C@H](C(=O)N[C@@H](CCC(=O)O)C(=O)N[C@@](C)(Cc1ccc(O)cc1)C(=O)N[C@@H](CC(C)C)C(=O)N[C@@H](CC(C)C)C(=O)N[C@@H](CCC(=O)O)C(=O)N[C@@H](C)C(=O)NCC(=O)N1CCC[C@H]1C(=O)N[C@@H](CO)C(=O)N[C@@H](CO)C(=O)NCC(=O)N[C@@H](C)C(=O)N1CCC[C@H]1C(=O)N1CCC[C@H]1C(=O)N1CCC[C@H]1C(=O)N[C@@H](CO)C(N)=O)C(C)C)[C@@H](C)CC` [Example 90] (H-Y[Aib]EGTFISDYSI[αMeL]LDKK([AEEA-AEEA-γGlu-C20 diacid])HQ[Aib]DFVE[αMeY]LLEAGPSSGAPPPS-NH2), the EC50 in assay [1] was 0.0272 nM; in assay [2], > 5000 nM; in assay [3] it was > 5000 nM.

Take `CC[C@H](C)[C@H](NC(=O)[C@H](CO)NC(=O)[C@H](Cc1ccc(O)cc1)NC(=O)[C@H](CC(=O)O)NC(=O)[C@H](CO)NC(=O)[C@@H](NC(=O)[C@](C)(Cc1ccccc1F)NC(=O)[C@@H](NC(=O)CNC(=O)[C@H](CCC(=O)O)NC(=O)C(C)(C)NC(=O)[C@@H](N)Cc1ccc(O)cc1)[C@@H](C)O)[C@@H](C)CC)C(=O)N[C@@H](C)C(=O)N[C@@H](CC(C)C)C(=O)N[C@@H](CC(=O)O)C(=O)N[C@@H](CCCCN)C(=O)N[C@H](C(=O)N[C@@H](Cc1c[nH]cn1)C(=O)N[C@@H](CCC(N)=O)C(=O)NC(C)(C)C(=O)N[C@@H](CC(=O)O)C(=O)N[C@@H](Cc1ccccc1)C(=O)N[C@H](C(=O)N[C@@H](CCC(=O)O)C(=O)N[C@@H](Cc1ccc(O)cc1)C(=O)N[C@@H](CCCCNC(=O)COCCOCCNC(=O)COCCOCCNC(=O)CC[C@H](NC(=O)CCCCCCCCCCCCCCCCCCC(=O)O)C(=O)O)C(=O)N[C@@H](CC(C)C)C(=O)N[C@@H](CCC(=O)O)C(=O)NCC(=O)NCC(=O)N1CCC[C@H]1C(=O)N[C@@H](CO)C(=O)N[C@@H](CO)C(=O)NCC(=O)N[C@@H](C)C(=O)N1CCC[C@H]1C(=O)N1CCC[C@H]1C(=O)N1CCC[C@H]1C(=O)N[C@@H](CO)C(N)=O)C(C)C)[C@@H](C)CC` [Example 99] (H-Y[Aib]EGT[αMePhe(2-F)]ISDYSIALDKIHQ[Aib]DFVEYK([AEEA-AEEA-γGlu-C20 diacid])LEGGPSSGAPPPS-NH2): the EC50 in assay [1] is 0.00454 nM; in assay [2], > 5000 nM; in assay [3], > 5000 nM.

`CC[C@H](C)[C@H](NC(=O)[C@H](CO)NC(=O)[C@H](Cc1ccc(O)cc1)NC(=O)[C@H](CC(=O)O)NC(=O)[C@H](CO)NC(=O)[C@@H](NC(=O)[C@](C)(CC)NC(=O)[C@@H](NC(=O)CNC(=O)[C@H](CCC(=O)O)NC(=O)C(C)(C)NC(=O)[C@@H](N)Cc1ccc(O)cc1)[C@@H](C)O)[C@@H](C)CC)C(=O)N[C@@](C)(CC(C)C)C(=O)N[C@@H](CC(C)C)C(=O)N[C@@H](CC(=O)O)C(=O)N[C@@H](CCCCN)C(=O)N[C@@H](CCCCNC(=O)COCCOCCNC(=O)COCCOCCNC(=O)CC[C@H](NC(=O)CCCCCCCCCCCCCCCCCCC(=O)O)C(=O)O)C(=O)N[C@@H](Cc1c[nH]cn1)C(=O)N[C@@H](CCC(N)=O)C(=O)NC(C)(C)C(=O)N[C@@H](CC(=O)O)C(=O)N[C@@H](Cc1ccccc1)C(=O)N[C@H](C(=O)N[C@@H](CCC(=O)O)C(=O)N[C@@H](Cc1ccncc1)C(=O)N[C@@H](CC(C)C)C(=O)N[C@@H](CC(C)C)C(=O)N[C@@H](CCC(=O)O)C(=O)N[C@H](C(=O)NCC(=O)N1CCC[C@H]1C(=O)N[C@@H](CO)C(=O)N[C@@H](CO)C(=O)NCC(=O)N[C@@H](C)C(=O)N1CCC[C@H]1C(=O)N1CCC[C@H]1C(=O)N1CCC[C@H]1C(=O)N[C@@H](CO)C(N)=O)[C@@H](C)O)C(C)C` [Example 75] (H-Y[Aib]EGT[Iva]ISDYSI[αMeL]LDKK([AEEA-AEEA-γGlu-C20 diacid])HQ[Aib]DFVE[4Pal]LLETGPSSGAPPPS-NH2): the EC50 is 0.0182 nM in assay [1], > 5000 nM in assay [2] and 2170 nM in assay [3].
